# Source: patent US20120225135A1 (priority 2010, published 2012)
# Several values for one entry are separate records, joined by “and”; a condition that tells them apart may be missing. Equal values may be shown once. Read-outs that look alike come from different tables or passages of the source.
# How the values were obtained:
# [1] = tested on: Poliovirus type 1, ATCC VR-59; assay type: cell-based; details: pH 9
# Giardia muris cysts = details: in vivo
# [2] = assay type: physicochemical; details: for Found ppm: test level 0.13 ppm ClO2, taken 0.130 ppm
# Pediococcus damnosus = test: Microbiological effectiveness at cold temperatures; assay type: cell-based
# [3] = ORP stability test (ORP meter); assay type: physicochemical
# Description: Two further samples from the original batch were taken one was packed in an amber coloured PET bottle and the second in a HDPE plastic pouch.
# Both were placed in an area out of direct sunlight and further the second sample was protected from light by a cardboard box.
# Measurements of their voltage were taken using an ORP meter in accordance with the testing procedure described in the ORP related articles above.
# Samples were kept in an office environment in Richmond on an exposed bench.
# Sampling Equipment EUTECH INSTRUMENTS Waterproof ORPTestr 10
# Lactobacillus frigidus = test: Microbiological effectiveness at cold temperatures; assay type: cell-based
# [4] = tested on: Klebsiella terrigena, ATCC 33257; assay type: cell-based; details: pH 5
# [5] = tested on: Cryptosporidium parvum oocysts; details: in vivo
# Fecal Coli = test: Disinfection of effluents, fecal coli; assay type: cell-based; details: for Fecal Coli: ClO2 dose 9.86 mg/L, 30 minutes; for Fecal Coli EC Media per 100 mL: trickling filters effluents
# [6] = tested on: Pichia (Hansenula) anomala (20 percent sporulated); test: Microbiological effectiveness at cold temperatures; assay type: cell-based
smiles,measurement,setting,value
"[O][Cl+][O-] [Chlorine Dioxide, chlorine dioxide]",reduction in titer,[1],> 4 log 10
same,reduction of infectivity for mice,Giardia muris cysts,> 3 log 10
same,Mean,"[2]; Day 1, n 6",0.126 ppm
same,Found ppm,[2]; Day 1,0.128 ppm and 0.126 ppm and 0.115 ppm and 0.127 ppm and 0.133 ppm
same,Mean,"[2]; Day 5, n 6",0.122 ppm
same,Found ppm,[2]; Day 5,0.125 ppm and 0.122 ppm and 0.117 ppm and 0.123 ppm and 0.118 ppm
same,Mean,"[2]; Day 15, n 5",0.129 ppm
same,Found ppm,[2]; Day 15,0.133 ppm and 0.129 ppm and 0.127 ppm and 0.125 ppm and 0.131 ppm and 0.157* ppm
same,Mean,"[2]; Day 30, n 5",0.128 ppm
same,Found ppm,[2]; Day 30,0.126 ppm and 0.130 ppm and 0.128 ppm and 0.125 ppm and 0.161* ppm
same,Mean,"[2]; Day 48, n 5",0.129 ppm
same,Found ppm,[2]; Day 48,0.131 ppm and 0.127 ppm and 0.128 ppm and 0.164* ppm
same,Mean,"[2]; Day 96, n 4",0.133 ppm
same,Found ppm,[2]; Day 96,0.137 ppm and 0.132 ppm and 0.128 ppm and 0.133 ppm and 0.161* ppm
same,Deactivation (%),Pediococcus damnosus,99.999%
same,ORP mV,"[3]; Card Board Wine Cask, April 20 (2005/2006)",991 mV
same,ORP mV,"[3]; Card Board Wine Cask, August 3 (2005/2006)",987 mV
same,ORP mV,"[3]; Card Board Wine Cask, August 24 (2005/2006)",1143 mV
same,ORP mV,"[3]; Card Board Wine Cask, January 18 (2005/2006)",1021 mV
same,ORP mV,"[3]; Card Board Wine Cask, July 7 (2005/2006, first entry)",970 mV
same,ORP mV,"[3]; Card Board Wine Cask, July 12 (2005/2006, last entry)",975 mV
same,ORP mV,"[3]; Card Board Wine Cask, July 18 (2005/2006)",980 mV
same,ORP mV,"[3]; Card Board Wine Cask, June 2 (2005/2006)",970 mV
same,ORP mV,"[3]; Card Board Wine Cask, March 14 (2005/2006)",1008 mV
same,ORP mV,"[3]; Card Board Wine Cask, May 11 (2005/2006)",970 mV
same,ORP mV,"[3]; Card Board Wine Cask, November 29 (2005/2006)",977 mV
same,ORP mV,"[3]; Card Board Wine Cask, October 21 (2005/2006)",1036 mV
same,ORP mV,"[3]; Card Board Wine Cask, September 5 (2005/2006)",1135 mV
same,ORP mV,"[3]; Card Board Wine Cask, September 20 (2005/2006)",1130 mV
same,ORP mV,"[3]; Sample PET bottle, April 20 2005",975 mV
same,ORP mV,"[3]; Sample PET bottle, Aug 8 2005",926 mV
same,ORP mV,"[3]; Sample PET bottle, Aug 24 2005",960 mV
same,ORP mV,"[3]; Sample PET bottle, July 10 2005",960 mV
same,ORP mV,"[3]; Sample PET bottle, July 20 2005",954 mV
same,ORP mV,"[3]; Sample PET bottle, June 12 2005",970 mV
same,ORP mV,"[3]; Sample PET bottle, June 21 2005",965 mV
same,ORP mV,"[3]; Sample PET bottle, May 10 2005",980 mV
same,ORP mV,"[3]; Sample PET bottle, May 20 2005",971 mV
same,ORP mV,"[3]; Sample PET bottle, Oct 12 2005",948 mV
same,ORP mV,"[3]; Sample PET bottle, Oct 28 2005",941 mV
same,ORP mV,"[3]; Sample PET bottle, Sept 5 2005",955 mV
same,ORP mV,"[3]; Sample PET bottle, Sept 20 2005",954 mV
same,Deactivation (%),Lactobacillus frigidus,99.999%
same,Total microbio counts,Total microbio counts,1-5 organisms/ml
same,reduction in titer,[4],> 6 log 10
same,reduction of infectivity for mice,[5],> 3 log 10
same,Fecal Coli,"Fecal Coli; effluents, pH initial 4.6, final 4.4",2 MPN per 100 ml
same,Fecal Coli,"Fecal Coli; effluents, pH initial 5.5, final 5.6",2 MPN per 100 ml
same,Fecal Coli,"Fecal Coli; effluents, pH initial 6.5, final 6.7",0 MPN per 100 ml
same,Fecal Coli,"Fecal Coli; effluents, pH initial 7.5, final 7.6",1.8 MPN per 100 ml
same,Fecal Coli,"Fecal Coli; effluents, pH initial 8.2, final 8.1",23 MPN per 100 ml
same,Fecal Coli,"Fecal Coli; effluents, pH initial 9.1, final 9.2",2.7 × 10^2 MPN per 100 ml
same,Fecal Coli,"Fecal Coli; effluents, pH initial 10.0, final 10.0",1.3 × 10^4 MPN per 100 ml
same,kill of fecal coli,"Fecal Coli; effluents, dose 2.7 mg/L ClO2, 30 min. contact time",98.9%
same,fecal coli organisms survived,"Fecal Coli; effluents, dose 10.8 mg/L ClO2, 30 min. contact time",two
same,Fecal Coli EC Media per 100 mL,"Fecal Coli; ClO2 dose 2.7 mg/L, contact time 5 min",2.4 × 10^7 per 100 mL
same,Fecal Coli EC Media per 100 mL,"Fecal Coli; ClO2 dose 2.7 mg/L, contact time 20 min",1.3 × 10^7 per 100 mL
same,Fecal Coli EC Media per 100 mL,"Fecal Coli; ClO2 dose 2.7 mg/L, contact time 35 min",3.5 × 10^5 per 100 mL
same,Fecal Coli EC Media per 100 mL,"Fecal Coli; ClO2 dose 5.0 mg/L, contact time 15 min",2.4 × 10^6 per 100 mL
same,Fecal Coli EC Media per 100 mL,"Fecal Coli; ClO2 dose 10.8 mg/L, contact time 5 min",9.2 × 10^2 per 100 mL
same,Fecal Coli EC Media per 100 mL,"Fecal Coli; ClO2 dose 10.8 mg/L, contact time 20 min",14 per 100 mL
same,Fecal Coli EC Media per 100 mL,"Fecal Coli; ClO2 dose 10.8 mg/L, contact time 35 min",2 per 100 mL
same,Deactivation (%),[6],99.999%
